According to patent publication US10722496B2, “2-iminobiotin for use in the treatment of brain cell injury” (Neurophyxia B.V., priority 2015, dated 2020):
Several values for one entry are separate records, joined by “and”; a condition that tells them apart may be missing. Identical values can stand only once.

Key:
[1] = Toxicokinetics, repeated i.v. pulse infusions to adult rats; assay type: in vivo, rat; details: for mean AUC 0-4-hour: 6.6 mg/kg per 15-minute i.v. pulse, first and last pulse
Protocol: The toxicokinetics of 2-IB was studied over a 96-hour period by i.v. pulse infusions to adult rats. The purpose of this study was to generate toxicokinetic parameters (Cmax, tmax, AUC, t1/2) from 2-IB plasma concentrations in male and female rats after repeated i.v. infusion.
Group 1 received vehicle only. Systemic exposure was monitored on day 0 and day 4. Blood sampling was conducted at 15 minutes and 0.5, 1 and 4 hours after the first infusion, and 15 minutes and 0.5, 1, 4, 8 and 24 hours following the last dose.

IMR-32 cell cultures = test: ROS fluorometric assay after hypoxia under mild hypothermia; assay type: cell-based, human
Protocol: (§1) In-vitro hypoxia was induced for 7 hours using IMR-32 cell cultures. After the hypoxic insult, cultures were subjected to 25 hours of mild hypothermia (33.5° C.) and were incubated with or without 2-IB (10, 30, 50, 100 and 300 ng/ml). Cell morphology was evaluated by brightfield microscopy and cell damage was analyzed by LDH assays. Production of reactive oxygen species (ROS) was measured using fluorometric assays. Western blotting for PARP and phosphorylated as well as unphosphorylated akt and erkl/2 was performed.

[2] = Dose prediction simulations from covariate PK models; design: species or system human; Sim. AUCinf when dosing based on Crea0 from Table 6 / Sim. AUCinf when dosing based on eGFR: unit not given here
Protocol: Models were generated in order to determine the impact of dose adjustments and variability of AUC.
[…] and can be easily derived. (D=dose; CL=clearance)
An exploratory covariate analysis was performed looking at body weight, age, eGFR, SeCre, and Core temperature. The model used was as follows:
Dose correction for use at lower temperatures can be determined using the following equation: […]

IMR-32 cells = test: Hydrogen peroxide in culture medium; assay type: cell-based, human; details: 30 ng/ml 2-IB, data not shown
PARP, akt and erkl/2 = test: Western blotting for PARP, akt and erkl/2 under mild hypothermia; assay type: cell-based, human; details: post-hypoxic addition (30 ng/ml)
Protocol: as §1

iNOS and nNOS = details: Tataranno et al., 2015; cited from earlier work

N=C1N[C@H]2[C@H](CS[C@H]2CCCCC(=O)O)N1 [2-IB, 2-iminobiotin]
mean AUC 0-4-hour ([1]; 1st of four values printed for male and female rats): 2310 ng·h/mL | mean AUC 0-4-hour ([1]; 2nd of four values printed for male and female rats): 2530 ng·h/mL | mean AUC 0-4-hour ([1]; 3rd of four values printed for male and female rats): 1750 ng·h/mL | mean AUC 0-4-hour ([1]; 4th of four values printed for male and female rats): 1950 ng·h/mL | overall mean AUC 0-4-hour ([1]; 6.6 mg/kg per pulse, across sexes and first and last pulses): about 2135 ng·h/mL | AUC expected ([1]; rat, 3.3 mg/kg dose level, assuming linear PK): about 1068 ng·h/mL | hypoxia-induced ROS production (IMR-32 cell cultures; 30 ng/ml 2-IB post-hypoxic, mild hypothermia (33.5° C.)): attenuated the hypoxia-induced ROS production under hypothermic conditions | hypoxia-induced ROS generation (IMR-32 cell cultures; higher concentrations of 2-IB (above 30 ng/ml), mild hypothermia): less effective in reducing hypoxia-induced ROS generation | Sim. AUCinf when dosing based on 4.8 mg for all ([2]; Table 8, covariate model with Crea0, individual patient (ID 1-8)): 220 and 292 and 765 and 847 and 642 and 993 and 427 and 266 | Sim. AUCinf when dosing based on Crea0 from Table 6 ([2]; Table 8, individual patient (ID 1-8)): 676 and 494 and 588 and 781 and 692 and 1070 and 722 and 327 | Sim. AUCinf when dosing based on 4.8 mg for all ([2]; Table 10, covariate model with eGFR, individual patient (ID 1-8)): 306 and 302 and 814 and 873 and 484 and 856 and 472 and 269 | Sim. AUCinf when dosing based on 4.8 mg for all ([2]; Table 10, Max of 8 patients): 873 | Sim. AUCinf when dosing based on eGFR ([2]; Table 10, Max of 8 patients): 922 | Sim. AUCinf when dosing based on 4.8 mg for all ([2]; Table 10, Mean of 8 patients): 547 | Sim. AUCinf when dosing based on eGFR ([2]; Table 10, Mean of 8 patients): 679 | Sim. AUCinf when dosing based on 4.8 mg for all ([2]; Table 10, Median of 8 patients): 478 | Sim. AUCinf when dosing based on eGFR ([2]; Table 10, Median of 8 patients): 713 | Sim. AUCinf when dosing based on 4.8 mg for all ([2]; Table 10, Min of 8 patients): 269 | Sim. AUCinf when dosing based on eGFR ([2]; Table 10, Min of 8 patients): 415 | Sim. AUCinf when dosing based on eGFR ([2]; Table 10, individual patient (ID 1-8)): 802 and 465 and 626 and 806 and 596 and 922 and 800 and 415 | CL at 33° relative to the CL at 36° ([2]; given the same Crea0, temperature correction equation): 37% | hypoxia-induced release of hydrogen peroxide (IMR-32 cells): did not attenuate the hypoxia-induced release of hydrogen peroxide | cleavage of PARP, akt and erkl/2 phosphorylation (PARP, akt and erkl/2): did not influence cleavage or phosphorylation of the mentioned molecules | inhibition of NO biosynthesis (iNOS and nNOS): reversible inhibitor of NO biosynthesis, blocking mainly iNOS and nNOS activity
